These results are taken from ChEMBL document CHEMBL1158449, “Hirtellanines A and B, a pair of isomeric isoflavonoid derivatives from Campylotropis hirtella and their immunosuppressive activities” (Bioorg Med Chem Lett, 2009).

Data set [1] deals with Splenocyte. The experiment in a line: Selectivity index, CC50 for splenocyte to IC50 for LPS-induced splenocytes proliferation. Type of data set: functional.
Data set [2] deals with Splenocyte. The experiment in a line: Selectivity index, CC50 for splenocytes to IC50 for concanavalin A-induced splenocyte proliferation. Type of data set: functional.
Data set [3] deals with Splenocyte. Nature of the data set: Immunosuppressive activity in splenocytes assessed as inhibition of LPS-induced proliferation after 48 hrs by [3H]thymidine incorporation assay. Type of data set: functional, cell-based. The note with it: Mus musculus. Background: Uptake of a labelled nucleoside into DNA is a usual measure of proliferation.
Data set [4] is described as follows: Cytotoxicity against splenocytes after 48 hrs by MTT assay. In kind it is cell-based, Splenocyte. (In general: Tetrazolium dyes change colour on reduction, which living cells bring about.)
The test system of data set [5] is Splenocyte. Nature of the data set: Immunosuppressive activity in splenocytes assessed as inhibition of concanavalin A-induced proliferation after 48 hrs by [3H]thymidine incorporation assay. Type of data set: functional, cell-based. Conditions: Mus musculus.

As to `C/C=C/C[C@@H](C)[C@@H](O)[C@H]1C(=O)N[C@@H](CC)C(=O)N(C)CC(=O)N(C)[C@@H](CC(C)C)C(=O)N[C@@H](C(C)C)C(=O)N(C)[C@@H](CC(C)C)C(=O)N[C@@H](C)C(=O)N[C@H](C)C(=O)N(C)[C@@H](CC(C)C)C(=O)N(C)[C@@H](CC(C)C)C(=O)N(C)[C@@H](C(C)C)C(=O)N1C` [CYCLOSPORINE], the figures for the “Ratio CC50/IC50” value in the data set on Splenocyte [1] and with Splenocyte [2] were 12.39 and 88, respectively.
The term IC50 denotes the concentration that gives 50% inhibition. As a reminder, the CC50 is the concentration giving 50% cytotoxicity. Low readings indicate greater toxicity to the cells, high ones lower toxicity to the cells. `COc1c2c(cc3oc4oc5cc(O)c(O)cc5c4c(=O)c13)OC(C)(C)C=C2` [HIRTELLANINE A]: the “Ratio CC50/IC50” value in the data set on Splenocyte [1] is reported as 50.5; in the data set on Splenocyte [2], 3.29. For the same compound, the values for the IC50 with Splenocyte [3] and in the data set with Splenocyte [5] were 60 nM and 0.92 µM, respectively. The compound further gave a CC50 at 48 h in data set [4] of 3.03 µM.
Regarding `COc1c2c(cc3oc(=O)c4c5cc(O)c(O)cc5oc4c13)OC(C)(C)C=C2` [HIRTELLANINE B], the “Ratio CC50/IC50” value was found to be 8.77 in the data set on Splenocyte [1] and 2.76 in the data set on Splenocyte [2]. In addition, the concentration for half-maximal inhibition (IC50) was 3000 nM with Splenocyte [3] and 9.55 µM in the data set with Splenocyte [5]. The compound further displayed a CC50 at 48 h in data set [4] of 26.3 µM.
